Test results reported in patent publication US20180369210A1, “METHODS AND COMPOSITIONS FOR TREATING LYSOSOMAL STORAGE DISORDERS” (Lysosomal Therapeutics Inc., priority 2015, published 2018).

Target: T1, acid ceramidase (Homo sapiens, UniProt Q13510)
T1 sequence (Q13510 22-395): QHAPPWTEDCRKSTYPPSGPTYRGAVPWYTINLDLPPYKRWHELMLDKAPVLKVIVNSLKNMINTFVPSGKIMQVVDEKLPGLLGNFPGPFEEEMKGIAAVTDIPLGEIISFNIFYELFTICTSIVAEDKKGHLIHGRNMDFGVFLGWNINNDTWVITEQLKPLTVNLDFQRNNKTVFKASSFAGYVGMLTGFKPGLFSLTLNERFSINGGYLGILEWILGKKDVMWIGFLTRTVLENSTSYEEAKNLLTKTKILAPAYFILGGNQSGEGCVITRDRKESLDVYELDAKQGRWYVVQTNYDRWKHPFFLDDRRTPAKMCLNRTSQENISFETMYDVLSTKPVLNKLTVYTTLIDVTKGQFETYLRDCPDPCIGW
Assay: Acid ceramidase fluorescent intensity assay with fluorogenic substrate Rbm 14-12
Type: biochemical
Details: cell lysates enriched with acid ceramidase; 1 hour preincubation; substrate Rbm 14-12 6.3 μM; pH 4.5; room temperature, 1 or two hours; read-out: average IC50 value for the 1 and 2 hour time points, inhibition of acid ceramidase activity
Experimental: Inhibition of acid ceramidase activity by compound 25 of Table 2 was evaluated in a fluorescent intensity assay using a fluorogenic substrate Rbm 14-12 […]. Compound 25 was incubated with cell lysates enriched with acid ceramidase for 1 hour in an assay buffer containing 50 mM NaOAc and 100 mM NaCl at pH 4.5. The reaction was initiated by the addition of the substrate at a final concentration of 6.3 μM and the mixture was incubated at room temperature for 1 or two hours. At the appropriate time, the reaction was quenched by the addition of methanol and treated with NaIO4 (fresh 2.5 mg/ml solution was made in 100 mM glycine/NaOH buffer, pH 10.6), followed by incubation for 1 hour at room temperature. Fluorescent intensity was measured using a plate reader at ex 355 nm and em 460 nm.

`O=C(NCCCCc1ccccc1)n1c(=O)oc2cc(-c3ccc(F)cc3)ccc21` [Compound 25, 6-(4-fluorophenyl)-2-oxo-N-(4-phenylbutyl)-1,3-benzoxazole-3-carboxamide] gave an IC50 of 250 to 500 nM.
